Entries after “also recorded” stand apart in the source; their conditions may differ.
Tested on: not listed separately
Experiment: Peptide solubility in sterile pure water
Format: physicochemical
Conditions: not given
Protocol: The theoretical average peptide hydrophilicity was calculated using the Hopp and Woods scale (28). For solubility determination, peptides were dissolved in sterile pure water at 50mg/ml (pH=7), mixed, centrifuged and the presence of a pellet indicated insolubility. Insoluble peptides were sequentially diluted and tested down to 2.5mg/ml or until solubility was observed. Peptides not fully dissolved at 2.5mg/ml were considered insoluble in this study.

**Q.** Which “solubility in H2O” value does the source give for H-SADAYITLVTLPKSS-OH [p143-157:V143S] here?
**A.** soluble

**Q.** For H-EDDITYVATATLPNY-OH [p113-127:S113E], which “solubility in H2O” value is on record?
**A.** insoluble

**Q.** For `CC[C@H](C)[C@H](N)C(=O)N[C@@H](C)C(=O)N[C@@H](CO)C(=O)N[C@@H](CC(C)C)C(=O)N[C@@H](Cc1ccccc1)C(=O)N[C@@H](C)C(=O)N[C@@H](C)C(=O)N[C@@H](C)C(=O)NCC(=O)N[C@@H](CC(C)C)C(=O)N[C@@H](C)C(=O)N[C@@H](C)C(=O)N[C@@H](C)C(=O)N[C@@H](C)C(=O)N1CCC[C@H]1C(=O)O` [p6-20], which “solubility in H2O” value is on record?
**A.** insoluble

**Q.** Which “solubility in H2O” value does the source give for H-EETYYNSLGFNIKAT-OH [p51-65:G52E] here?
**A.** insoluble

**Q.** With H-VNSLGFNIKATNGGT-OH [p55-69:Y55V] as the molecule, how does the “solubility in H2O” value read?
**A.** insoluble

**Q.** For H-SKDFVVQGVADAYIT-OH [p135-149:P135S], which “solubility in H2O” value is on record?
**A.** insoluble

**Q.** For H-LQFTTIASLFAAAGL-OH [p1-15], which “solubility in H2O” value is on record?
**A.** insoluble

**Q.** With H-ANSLGFNIKATNGGT-OH [p55-69:Y55A] as the molecule, how does the “solubility in H2O” value read?
**A.** soluble

**Q.** For H-ESTYYNSLGFNIKAT-OH [p51-65:G52S], which “solubility in H2O” value is on record?
**A.** soluble

**Q.** Which “solubility in H2O” value does the source give for `CC[C@H](C)[C@H](NC(=O)[C@H](Cc1ccc(O)cc1)NC(=O)[C@H](C)NC(=O)[C@H](CC(=O)O)NC(=O)[C@H](C)NC(=O)[C@@H](N)C(C)C)C(=O)N[C@H](C(=O)N[C@@H](CC(C)C)C(=O)N[C@H](C(=O)N[C@H](C(=O)N[C@@H](CC(C)C)C(=O)N1CCC[C@H]1C(=O)N[C@@H](CCCCN)C(=O)N[C@@H](CO)C(=O)N[C@@H](CO)C(=O)O)[C@@H](C)O)C(C)C)[C@@H](C)O` [p143-157] here?
**A.** insoluble

**Q.** For H-ETYYNSLGFNIKATN-OH [p52-66:G52E], which “solubility in H2O” value is on record?
**A.** insoluble

**Q.** With H-SNSLGFNIKATNGGT-OH [p55-69:Y55S] as the molecule, how does the “solubility in H2O” value read?
**A.** soluble

**Q.** Which “solubility in H2O” value does the source give for H-AADAYITLVTLPKSS-OH [p143-157:V143A] here?
**A.** insoluble

**Q.** Which “solubility in H2O” value does the source give for H-EADAYITLVTLPKSS-OH [p143-157:V143E] here?
**A.** soluble

**Q.** For H-EKDFVVQGVADAYIT-OH [p135-149:P135E], which “solubility in H2O” value is on record?
**A.** insoluble

**Q.** For H-STYYNSLGFNIKATN-OH [p52-66:G52S], which “solubility in H2O” value is on record?
**A.** soluble

**Q.** Which “solubility in H2O” value does the source give for H-ENSLGFNIKATNGGT-OH [p55-69:Y55E] here?
**A.** soluble

**Q.** Which “solubility in H2O” value does the source give for H-PKDFVVQGVADAYIT-OH [p135-149] here?
**A.** insoluble

Same assay, conditions: sterile pure water pH=7, 50mg/ml diluted down to 2.5mg/ml; not fully dissolved at 2.5mg/ml = insoluble

**Q.** Which “solubility in H2O” value does the source give for H-YNSLGFNIKATNGGT-OH [p55-69] here?
**A.** insoluble

**Q.** With H-GTYYNSLGFNIKATN-OH [p52-66] as the molecule, how does the “solubility in H2O” value read?
**A.** insoluble

**Q.** Which “solubility in H2O” value does the source give for H-SDDITYVATATLPNY-OH [p113-127] here?
**A.** insoluble

**Q.** With H-FTTIASLFAAAGLAA-OH [p3-17] as the molecule, how does the “solubility in H2O” value read?
**A.** insoluble

**Q.** With H-EGTYYNSLGFNIKAT-OH [p51-65] as the molecule, how does the “solubility in H2O” value read?
**A.** insoluble

**Q.** For H-ASLFAAAGLAAAAPL-OH [p7-21], which “solubility in H2O” value is on record?
**A.** insoluble

Tested on: T cells expanded for 14 days with allergen extract and IL-2
Experiment: not given
Conditions: allergic population; cited from earlier work

**Q.** For `CC[C@H](C)[C@H](N)C(=O)N[C@@H](C)C(=O)N[C@@H](CO)C(=O)N[C@@H](CC(C)C)C(=O)N[C@@H](Cc1ccccc1)C(=O)N[C@@H](C)C(=O)N[C@@H](C)C(=O)N[C@@H](C)C(=O)NCC(=O)N[C@@H](CC(C)C)C(=O)N[C@@H](C)C(=O)N[C@@H](C)C(=O)N[C@@H](C)C(=O)N[C@@H](C)C(=O)N1CCC[C@H]1C(=O)O` [p6-20], which “IL-5 and INF-γ ELISPOT result” value is on record?
**A.** positive for IL-5 only

**Q.** For H-LQFTTIASLFAAAGL-OH [p1-15], which “IL-5 and INF-γ ELISPOT result” value is on record?
**A.** negative to both cytokines

**Q.** With `CC[C@H](C)[C@H](NC(=O)[C@H](Cc1ccc(O)cc1)NC(=O)[C@H](C)NC(=O)[C@H](CC(=O)O)NC(=O)[C@H](C)NC(=O)[C@@H](N)C(C)C)C(=O)N[C@H](C(=O)N[C@@H](CC(C)C)C(=O)N[C@H](C(=O)N[C@H](C(=O)N[C@@H](CC(C)C)C(=O)N1CCC[C@H]1C(=O)N[C@@H](CCCCN)C(=O)N[C@@H](CO)C(=O)N[C@@H](CO)C(=O)O)[C@@H](C)O)C(C)C)[C@@H](C)O` [p143-157] as the molecule, how does the “IL-5 and INF-γ ELISPOT result” value read?
**A.** positive for IL-5 only

Tested on: PBMCs of Alternaria allergic patients and control subjects
Experiment: IL-4 ELISPOT of PBMCs exposed to peptide
Format: cell-based, human
Conditions: Alt a 5 peptide; three Alternaria patients; methods as Example 1
Text: Peripheral blood was obtained by venipuncture from Alternaria allergic patients and non-sensitized controls. Peripheral blood mononuclear cells (PBMCs) were isolated from heparinized blood by standard Ficoll density gradient centrifugation. PBMCs were washed with CTL (Cellular Technology Limited, Cleveland, Ohio, USA) wash medium containing RPMI-1640 with L-glutamine (Lonza, Basel, Switzerland) before being counted by haemocytometer using trypan blue stain (Sigma). PBMCs (10 million/ml) were resuspended in CTL-Cryo ABC serum-free freezing medium according to the manufacturer's protocol before being frozen overnight at −80° C. and transferred to and stored in liquid nitrogen until time of use.
Enzyme-linked immunospot assay (ELISPOT) analysis was performed utilizing 16 Alternaria patients and 11 controls. For an individual peptide the number of Alternaria patients tested ranged between 10-15 and the number of control subjects ranged between 7-9. Ten Alternaria patients were fully tested with all 22 peptides. For ELISPOT, the BD ELISPOT Human IL-4 Set (BD Biosciences, San Diego, Calif., USA) was used to analyze IL-4 production by human PBMCs. Plates were coated overnight at 4° C. with IL-4 capture antibody (BD Biosciences) and then washed 3 times with Dulbecco's Phosphate Buffer Saline (DPBS, Sigma). Plates were blocked with 1% BSA (Sigma) in PBS for 2 h at room temperature and washed 3 times with DPBS. Cryopreserved Alternaria patient and control subject PBMCs were thawed rapidly, washed, counted, and resuspended in CTL Test Medium supplemented with 2 mM L-glutamine (Sigma) and used at a concentration of 300,000 cells/well contained in 100 μl. […] The plates were dried and analyzed on the ImmunoSpot UV Core ELISPOT Plate Reader (Cellular Technology Limited).
The two-independent sample Wilcoxon rank sum test was used for statistical analysis of ELISPOT data (26). A one-sided control<patient p-value was determined except for peptides 7-21 and 143-157 where a one-sided patient >control p-value was calculated. […]
Two methods were evaluated to interpret the IL-4 ELISPOT spot count data. […]

**Q.** Which “activity in Alternaria patients (ELISPOT)” value does the source give for H-AAYLLLGLGGNTSPS-OH [p5-19] here?
**A.** active in all 3 patients

Same assay, conditions: IL-4 ELISPOT, cut-off >9 spot counts

**Q.** With H-LQFTTIASLFAAAGL-OH [p1-15] as the molecule, how does the “number of patients stimulated” value read?
**A.** one

**Q.** Which “number of patients stimulated” value does the source give for `CC[C@H](C)[C@H](NC(=O)[C@H](Cc1ccc(O)cc1)NC(=O)[C@H](C)NC(=O)[C@H](CC(=O)O)NC(=O)[C@H](C)NC(=O)[C@@H](N)C(C)C)C(=O)N[C@H](C(=O)N[C@@H](CC(C)C)C(=O)N[C@H](C(=O)N[C@H](C(=O)N[C@@H](CC(C)C)C(=O)N1CCC[C@H]1C(=O)N[C@@H](CCCCN)C(=O)N[C@@H](CO)C(=O)N[C@@H](CO)C(=O)O)[C@@H](C)O)C(C)C)[C@@H](C)O` [p143-157] here?
**A.** one

Target: DRB1*0101, 0301, 0401, 0701, 1101, 1301,1501 (Homo sapiens, UniProt P01903+P01911, A100R/D57E/F55L/F60I/F76Y/I96L/L162R/M171V/P40L/Q125E/R42F/V115G/Y59C)
Experiment: REVEAL Class II binding assay and Quick Check Stability Assay (MHC-peptide binding)
Conditions: 7 DRB1 alleles; stability index ≧1.0 considered positive for MHC binding
Protocol: The MHC restriction of peptides from ProPred prediction were evaluated using the REVEAL Class II binding assay and Quick Check Stability Assay performed by ProImmune (Oxford, United Kingdom). In the REVEAL cell free in vitro assay, the binding of a peptide to an HLA molecule is determined by its ability to stabilize a MHC class II-peptide complex. Each MHC class II-peptide binding was scored relative to a validated proprietary T cell epitope control peptide. The score was determined as the percentage of the signal generated by the test peptide versus the level for the positive control peptide and reflects the on-rate properties of peptide. The off-rate properties of the peptide were determined by the Quick Check Stability Assay which measured the amount of peptide bound at time zero and time 24 hours at 37° C. The two signals were used to estimate a half-life which was multiplied by the REVEAL score and divided by 100 to yield the combined stability index. A stability index ≧1.0 was considered positive for MHC binding.
To confirm ProPred predictions and to validate peptides for continued analysis using IL-4 ELISPOT, an in vitro MHC-peptide binding assay was used to measure binding of 22/25 15mers (excluding p3-17, 42-56, and 43-57) to the 7 DRB1 alleles which accounted for the majority of the ProPred predictions (Table II). […] High stringency binding prediction rates were accurate for alleles *0301 (none predicted) and *1501 (none predicted), while inaccurate with low stringency positive binding prediction rates of 0% (0/10) and 25% (1/4), respectively. Both alleles *0301 and *1501 had low false negative rates of 8% (1/12) and 6% (1/18), respectively. ProPred was inaccurate at both high and low stringency for the three remaining alleles with a 0% binding prediction rate for *0701 (0/9), *1101 (0/14) and *1301 (0/7) but also yielding 0% false negative rates at 0/13, 0/8 and 0/14, respectively. […]

**Q.** Which “in vitro binding to DRB1 alleles” value does the source give for H-SGLLLKQKVSDDITY-OH [p104-118] here?
**A.** non-binding; also recorded: no in vitro binding to any DRB1 allele

**Q.** With H-RSGLLLKQKVSDDIT-OH [p103-117] as the molecule, how does the “in vitro binding to DRB1 alleles” value read?
**A.** non-binding; also recorded: no in vitro binding to any DRB1 allele

**Q.** Which “in vitro binding to DRB1 alleles” value does the source give for H-EGDYVWKISEFYGRK-OH [p35-49] here?
**A.** non-binding; also recorded: no in vitro binding to any DRB1 allele

— patent US20160130311A1, “T CELL EPITOPES DERIVED FROM ALT A 1 OR ALT A 5 FOR THE TREATMENT OF ALTERNARIA ALTERNATA ALLERGY” (priority 2013, published 2016)
